Legend:
[1] = Cytotoxicity (SRB) against non-tumoral HMLE cells; type: cell-based, human; details: human, HMLE cells (non-tumoral human mammary epithelial cells); increasing concentrations up to 100 μM; mean ± SD of at least three independent experiments; read-out: Normal Human Cell Lines, CC50, HMLE
Description: (§1) All compounds were also evaluated for their cytotoxic activity against two non-tumoral human cell lines named human mammary epithelial cell (HMLE) and L02 (a human liver cell line) in Table 2 and SI values between the CC50 in non-tumoral cell lines and IC50 in tumoral cells calculated.
(§2) HepG2 and MCF7 cells were grown in the Eagle’s minimum essential medium with Earle’s balanced salts (MEM-EBSS) medium, HeLa, A549 and L02 cells were grown in Dulbecco’s Modified Eagle Media (DMEM), SW1990 cells were grown in RPMI-1640 medium, and HMLE cell were grown in DMEM/F-12 medium. […]
(§3) Cells were seeded into 96-well plates (4000 cells/well) and incubated at 37 °C in a humidified 5% CO2 atmosphere. After 24 h, the cells were treated with different concentrations of the compounds for 48 h in triplicate to generate dose-response curves. Cell viability was evaluated using the sulforhodamine B (SRB) assay as previous described. […] Etoposide was used as the positive control.

A549 cells = test: In vitro anti-proliferative SRB assay, A549; type: cell-based, human; details: for IC50: Homo sapiens, A549, increasing concentrations up to 30 μM, mean ± SD of at least three independent experiments; for SI (CC50 HMLE/IC50 A549) / SI (CC50 L02/IC50 A549): selectivity index; for SI (CC50 HMLE/IC50 A549): HMLE vs A549; for SI (CC50 L02/IC50 A549): L02 vs A549
Description: as §2
(§4) Cells were seeded into 96-well plates (4000 cells/well) and incubated at 37 °C in a humidified 5% CO2 atmosphere. After 24 h, the cells were treated with different concentrations of the compounds for 48 h in triplicate to generate dose-response curves. Cell viability was evaluated using the sulforhodamine B (SRB) assay as previous described.

MCF-7 cells = test: In vitro anti-proliferative SRB assay, MCF-7; type: cell-based, human; details: for IC50: Homo sapiens, MCF7, increasing concentrations up to 30 μM, mean ± SD of at least three independent experiments; for SI (CC50 HMLE/IC50 MCF7) / SI (CC50 L02/IC50 MCF7): selectivity index; for SI (CC50 HMLE/IC50 MCF7): HMLE vs MCF7; for SI (CC50 L02/IC50 MCF7): L02 vs MCF7
Description: as §2, §4

[2] = Cytotoxicity (SRB) against non-tumoral L02 cells; type: cell-based, human; details: human, L02 cells (non-tumoral human liver cell line); increasing concentrations up to 100 μM; mean ± SD of at least three independent experiments; read-out: Normal Human Cell Lines, CC50, L02
Description: as §1, §2, §3

HeLa cells = test: In vitro anti-proliferative SRB assay, HeLa; type: cell-based, human; details: for IC50: Homo sapiens, HeLa, increasing concentrations up to 30 μM, mean ± SD of at least three independent experiments; for SI (CC50 HMLE/IC50 Hela) / SI (CC50 L02/IC50 Hela): selectivity index; for SI (CC50 HMLE/IC50 Hela): HMLE vs HeLa; for SI (CC50 L02/IC50 Hela): L02 vs HeLa
Description: as §2, §4

HepG2 cells = test: In vitro anti-proliferative SRB assay, HepG2; type: cell-based, human; details: for IC50: Homo sapiens, HepG2, increasing concentrations up to 30 μM, mean ± SD of at least three independent experiments; for SI (CC50 HMLE/IC50 HepG2) / SI (CC50 L02/IC50 HepG2): selectivity index; for SI (CC50 HMLE/IC50 HepG2): HMLE vs HepG2; for SI (CC50 L02/IC50 HepG2): L02 vs HepG2
Description: as §2, §4

SW1990 cells = test: In vitro anti-proliferative SRB assay, SW1990; type: cell-based, human; details: for IC50: Homo sapiens, SW1990, increasing concentrations up to 30 μM, mean ± SD of at least three independent experiments; for SI (CC50 HMLE/IC50 SW1990) / SI (CC50 L02/IC50 SW1990): selectivity index; for SI (CC50 HMLE/IC50 SW1990): HMLE vs SW1990; for SI (CC50 L02/IC50 SW1990): L02 vs SW1990
Description: as §2, §4

Compound	CC50 at 48 h [1] [µM]	melting point [°C]	IC50 (A549 cells) [µM]	SI (CC50 HMLE/IC50 A549) (A549 cells)	SI (CC50 L02/IC50 A549) (A549 cells)	IC50 (MCF-7 cells) [µM]	SI (CC50 HMLE/IC50 MCF7) (MCF-7 cells)	SI (CC50 L02/IC50 MCF7) (MCF-7 cells)	CC50 at 48 h [2] [µM]	IC50 (HeLa cells) [µM]	SI (CC50 HMLE/IC50 Hela) (HeLa cells)	SI (CC50 L02/IC50 Hela) (HeLa cells)	IC50 (HepG2 cells) [µM]	SI (CC50 HMLE/IC50 HepG2) (HepG2 cells)	SI (CC50 L02/IC50 HepG2) (HepG2 cells)	IC50 (SW1990 cells) [µM]	SI (CC50 HMLE/IC50 SW1990) (SW1990 cells)	SI (CC50 L02/IC50 SW1990) (SW1990 cells)
COc1cccc(OC)c1/C=C/C(=O)c1ccc2c(c1)CCO2 [b21, (E)-1-(2,3-Dihydrobenzofuran-5-yl)-3-(2,6-dimethoxyphenyl)prop-2-en-1-one]	14.6 ± 0.81	118.8 to 120.2	22.3 ± 0.99	0.7	2.6	22.6 ± 2.1	0.6	2.5	57.5 ± 13.6	21.6 ± 0.43	0.7	2.7	17.3 ± 0.23	0.8	3.3	24.4 ± 0.6	0.6	2.4
COc1cccc(OC)c1/C=C/C(=O)c1ccccc1O [b24, (E)-1-(2-Hydroxyphenyl)-3-(2,6-dimethoxyphenyl)prop-2-en-1-one]	8.96 ± 0.44	114.2 to 115.9	8.64 ± 0.31	1.0	2.8	10.7 ± 0.38	0.8	2.3	24.2 ± 2.71	13.4 ± 0.74	0.7	1.8	7.77 ± 0.08	1.2	3.1	16.1 ± 0.32	0.6	1.5
COc1cccc(OC)c1/C=C/C(=O)c1cccc(O)c1 [b25, (E)-1-(3-Hydroxyphenyl)-3-(2,6-dimethoxyphenyl)prop-2-en-1-one]	6.31 ± 0.13	138.1 to 139.7	12.7 ± 0.28	0.5	1.5	8.92 ± 0.25	0.7	2.2	19.6 ± 1.29	9.56 ± 0.33	0.7	2.1	7.27 ± 0.13	0.9	2.7	21 ± 0.43	0.3	0.9
COc1cccc(OC)c1/C=C/C(=O)c1ccc(O)cc1 [b26, (E)-1-(4-Hydroxyphenyl)-3-(2,6-dimethoxyphenyl)prop-2-en-1-one]	12.6 ± 2.82	189.6 to 191.4	23.8 ± 1.56	0.5	1.2	20.2 ± 0.3	0.6	1.4	28.2 ± 1.69	12.7 ± 0.81	1.0	2.2	14.4 ± 0.81	0.9	2.0	20.8 ± 0.54	0.6	1.4
COc1ccc(C(=O)/C=C/c2c(OC)cccc2OC)c(O)c1 [b28, (E)-1-(2-Hydroxy-4-methoxyphenyl)-3-(2,6-dimethoxyphenyl)prop-2-en-1-one]	16.2 ± 2.48	143.5 to 144.7	17.4 ± 0.97	0.9	>5.8	28.4 ± 1.25	0.6	>3.5	> 100	17 ± 0.65	1.0	>5.9	19.5 ± 0.79	0.8	>5.1	28.3 ± 0.26	0.6	>3.5
COc1cccc(OC)c1/C=C/C(=O)c1cccc(F)c1 [b32, (E)-1-(3-Fluorophenyl)-3-(2,6-dimethoxyphenyl)prop-2-en-1-one]	11.9 ± 1.28	105.4 to 107.3	27.2 ± 1.39	0.4	2.7	25.5 ± 0.78	0.5	2.8	72 ± 12.1	20.7 ± 0.78	0.6	3.5	21.6 ± 0.97	0.6	3.3	28.38 ± 0.27	0.4	2.5
COc1cccc(OC)c1/C=C/C(=O)c1ccc(F)cc1 [b33, (E)-1-(4-Fluorophenyl)-3-(2,6-dimethoxyphenyl)prop-2-en-1-one]	12.7 ± 2.35	108.2 to 109.6	> 30	<0.4	<2.1	32.2 ± 1.34	0.4	2.0	63.9 ± 13.8	17.4 ± 0.39	0.7	3.7	24.6 ± 0.36	0.5	2.6	> 30	<0.4	<2.1
COc1cccc(OC)c1/C=C/C(=O)c1ccc(Cl)cc1 [b35, (E)-1-(4-Chlorophenyl)-3-(2,6-dimethoxyphenyl)prop-2-en-1-one]	17.7 ± 1.35	107.9 to 109.7	> 30	<0.6	<2.8	29.8 ± 0.8	0.6	2.9	85.4 ± 6.86	18.4 ± 0.06	1.0	4.6	27.1 ± 0.88	0.7	3.2	> 30	<0.6	<2.8
COc1cccc(OC)c1/C=C/C(=O)c1cccc(Br)c1 [b36, (E)-1-(3-Bromophenyl)-3-(2,6-dimethoxyphenyl)prop-2-en-1-one]	13.1 ± 1.21	135.7 to 138.2	25 ± 3.17	0.5	2.4	23.3 ± 0.79	0.6	2.6	61.2 ± 12.1	13.4 ± 0.44	1.0	4.6	11.3 ± 1.45	1.2	5.4	17.1 ± 0.57	0.8	3.6
COc1cccc(OC)c1/C=C/C(=O)c1ccc(Cl)cc1Cl [b37, (E)-1-(2,4-Dichlorophenyl)-3-(2,6-dimethoxyphenyl)prop-2-en-1-one]	19.8 ± 1.44	111.1 to 112.7	> 30	<0.7		30.4 ± 0.71	0.7	>3.3	> 100	15.7 ± 1.09	1.3	>6.4	11.7 ± 0.18	1.7	>8.5	15.4 ± 0.83	1.3	>6.5
COc1cccc(OC)c1/C=C/C(=O)c1ccc(Cl)c(Cl)c1 [b38, (E)-1-(3,4-Dichlorophenyl)-3-(2,6-dimethoxyphenyl)prop-2-en-1-one]	28.3 ± 3.74	142.1 to 143.4	27.6 ± 0.58	1.0	>3.6	29.6 ± 2.13	1.0	>3.4	> 100	17.6 ± 2.01	1.6	>5.7	18.6 ± 1.24	1.5	>5.4	26.16 ± 0.08	1.1	>3.8

— paper PMC6271338, “Synthesis and Cytotoxic Evaluation of Alkoxylated Chalcones” (Molecules, 2014)
